Patent US6596885B2, “19-Nor steroids having a thiocarbonated chain in position 11beta, their preparation process and the intermediates of this process, their use as medicaments and compositions” (Aventis Pharma S.A., priority 1991, dated 2003)
Like-named read-outs stand apart in the source and are kept apart here.

Columns and labels:
[1] = test system: MCF-7 mammary tumour cells; experiment: Anti-proliferative activity on the growth of MCF-7 mammary tumour cells (DNA dosage); assay type: cell-based; settings: MCF-7 cells in DSE medium with 10^-10 M estradiol, D7 to D9, DNA by DABA fluorimetry, read-out: IC 50: concentration which inhibits the growth of MCF7 cells by 50%
Method: 2—Anti-proliferative Activity of the Products of the Invention on the Growth of MCF-7 Mammary Tumour Cells
MCF-7 lines are kept in culture in FCS medium (according to 1) at 37° C. in a humid atmosphere containing 5% CO2. Subconfluent cells are collected by trypsination (0.05% trypsin, 0.02% EDTA) then rinsed by gentle centrifugation. A sample of cells in suspension is counted with a Malassez cell.
The cells, resuspended in DSE medium (according to 1), are seeded at the rate of 50,000 cells per well in multiwell plates (24 wells of 2.5 cm^2). Twenty-four hours after seeding (D0), the product to be tested is added to the medium in ethanolic solution (final concentration of ethanol: 0.1%), at a concentration of 10^−11 to 10^−6M, the control wells receiving the same ethanol concentration. The media are renewed every 48 hours. At the end of the experiment (D7 to D9), the medium is extracted and the cells are immediately fixed with 150 microlitres of methanol in order to dose the DNA.
The anti-proliferative activity of the products is evaluated by their capacity to inhibit the increase of DNA
The DNA is dosed by a fluorimetric method using DABA (3,5 diaminobenzoic acid) (according to 2): 150 microlitres of DABA are added to each well; the plates are then incubated for 45 mn at 56° C., then 2 ml of 1N HCl is added. The fluorescence is measured using a fluorimeter (excitation wavelength: 408 nm, emission wavelength: 510 nm).
The quantity of DNA per well is evaluated relative to a reference scale obtained by treating a calf thymus DNA standard under the same conditions.
The concentration in nM which inhibits the growth of MCF7 cells by 50% (IC50) was determined in the manner indicated above:
(1) A Base Medium is Prepared as Follows
The FCS medium is composed of 95% of base medium and 5% of foetal calf serum.
The DSE medium is composed of 95% of base medium, 5% of steroid-free foetal calf serum on carbon-dextran and 10^−10 M of estradiol.
(2) Puzas and Goodman, Analytical Biochemistry, Vol 86, p. 50, 1978

[2] = target: T1, Estrogen receptor of a mouse uterus (Mus musculus, UniProt P19785); experiment: Activity on the estrogen receptor of a mouse uterus (relative bond affinity, displacement of tritiated estradiol); assay type: binding; settings: mouse uterus cytosol, RBA = 100 (CH)/(CX) relative to unlabelled estradiol
T1 construct: The homogenate is then ultracentrifuged (209,000 g×30 mn.) at 0° C; from tissue; host or cells: uterus of 18 to 21-day old immature female mice, cytosol (ultracentrifugation supernatant of the homogenate)
T1 sequence (P19785 1-599): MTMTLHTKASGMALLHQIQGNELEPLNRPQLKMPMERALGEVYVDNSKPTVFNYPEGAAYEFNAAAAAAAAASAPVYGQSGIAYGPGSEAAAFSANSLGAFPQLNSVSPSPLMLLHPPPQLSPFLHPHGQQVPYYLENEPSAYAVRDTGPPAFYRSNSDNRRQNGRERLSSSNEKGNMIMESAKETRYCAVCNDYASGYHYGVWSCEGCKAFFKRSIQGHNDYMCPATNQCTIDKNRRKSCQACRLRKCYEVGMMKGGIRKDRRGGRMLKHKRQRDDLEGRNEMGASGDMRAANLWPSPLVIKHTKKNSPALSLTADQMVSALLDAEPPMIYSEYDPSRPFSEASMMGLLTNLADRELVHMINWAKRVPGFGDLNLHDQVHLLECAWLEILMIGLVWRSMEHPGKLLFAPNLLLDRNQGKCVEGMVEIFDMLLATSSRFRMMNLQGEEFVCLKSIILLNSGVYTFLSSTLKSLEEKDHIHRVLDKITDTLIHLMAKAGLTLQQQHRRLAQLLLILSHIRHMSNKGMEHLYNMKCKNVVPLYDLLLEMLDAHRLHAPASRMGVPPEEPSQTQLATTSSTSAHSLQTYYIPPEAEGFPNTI
Method: 1—Study of the Activity of the Products of the Invention on the Estrogen Receptor of a Mouse Uterus
18 to 21-day old impuberal female mice are sacrificed, the uteri are removed, then homogenized at 0° C., using a Potter teflon-glass in a TS buffered solution (10 mM Tris, 0.25 M saccharose, HCl pH 7.4) (1 g of tissue per 25 ml of TS). The homogenate is then ultracentrifuged (209,000 g×30 mn.) at 0° C. The supernatant aliquots thus obtained are incubated at 25° C. for 5 hours, with a constant concentration (T) of tritiated estradiol in the presence of increasing concentrations either of unlabelled estradiol (0-1000×10^−9M), or of unlabelled product to be tested (1 to 25000×10^−9M). The concentration of bound tritiated estradiol (B) is then measured in each incubate by the carbon-dextran adsorption technique.
Calculation of the Relative Bond Affinity (RBA)
The following two curves are drawn: the percentage of bound tritiated hormone B/BO as a function of the logarithm of the concentration of unlabelled reference hormone or as a function of the logarothm of the concentration of unlabelled test product.
The straight line of the following equation:
BO=% of binding of the bound tritiated hormone in the absence of any unlabelled product.
B=% of the bound tritiated hormone in the presence of a concentration X of unlabelled product.
B min=% of bound tritiated hormone in the presence of a large excess of unlabelled reference hormone (500 nM).
The intersections of the straight line I50 and the curves allow the evaluation of the concentrations of unlabelled reference hormone (CH) and of the unlabelled test product (CX) which inhibit by 50% the specific binding of the tritiated hormone on the receptor.
The relative bond affinity (RBA) of the test product is calculated by the equation: […]

| SMILES | IC50 ([1]; Homo sapiens, MCF7) [nM] | Relative bond affinity (RBA), Estrogen receptor incubation 5H at 25° C. [2] | IC50 [1] [nM] |
| --- | --- | --- | --- |
| C[C@]12C[C@H](CCCCCCCCSCc3ccccn3)[C@@H]3c4ccc(O)cc4CC[C@H]3[C@@H]1CC[C@@H]2O [Example 1, 11beta-[8-[(2-pyridinylmethyl)thio]octyl]estra-1,3,5(10)-triene-3,17beta-diol] | 0.024 |  |  |
| C[C@]12C[C@H](c3ccc(OCCCCC[S+]([O-])Cc4ccccn4)cc3)[C@@H]3c4ccc(O)cc4CC[C@H]3[C@@H]1CC[C@@H]2O (stereo partly drawn) [Example 5, 11beta-[4-[5-[(2-pyridinylmethyl)sulphinyl]-pentyloxy]phenyl]estra-1,3,5(10)-triene-3,17beta-diol] | 0.012 | 21.2 |  |
| C[C@]12C[C@H](c3ccc(OCCCCC[S+]([O-])Cc4cccnc4)cc3)[C@@H]3c4ccc(O)cc4CC[C@H]3[C@@H]1CC[C@@H]2O (stereo partly drawn) [Example 7, 11beta-[4-[5-[(3-pyridinylmethyl)sulphinyl]pentyloxy]phenyl]estra-1,3,5(10)-triene-3,17beta-diol] | 0.026 | 26.3 |  |
| C[C@]12C[C@H](c3ccc(OCCCCCS(=O)(=O)CCCC(F)(F)C(F)(F)F)cc3)[C@@H]3c4ccc(O)cc4CC[C@H]3[C@@H]1CC[C@@H]2O [Example 32, 11beta-[4-[5-[(4,4,5,5,5-pentafluoropentyl)sulphonyl]pentyloxy]phenyl]estra-1,3,5(10)-triene-3,17beta-diol] | 0.1 | 56 |  |
| CCCCCS(=O)(=O)C(C)CCCOc1ccc([C@H]2C[C@]3(C)[C@@H](O)CC[C@H]3[C@@H]3CCc4cc(O)ccc4[C@H]32)cc1 (stereo partly drawn) [Example 60, 11beta-[4-[4-(pentylsulphonyl)pentyloxy]phenyl]estra-1,3,5(10)-triene-3,17beta-diol] | 0.25 | 18.2 |  |
| C[C@]1(O)CC[C@H]2[C@@H]3CCc4cc(O)ccc4[C@H]3[C@@H](c3ccc(OCCCCCS(=O)(=O)CCCC(F)(F)C(F)(F)F)cc3)C[C@@]21C [Example 78, 11beta-[4-[5-[(4,4,5,5,5-pentafluoropentyl)sulphonyl]pentyloxy]phenyl]17alpha-methyl estra-1,3,5(10)-triene-3,17beta-diol] |  | 21.8 | 0.03 |
